Patent US4450269A, “Mono-5-substituted-3-chloro-4H-1,2,6-thiadiazin-4-one antifungal agents” (FMC Corporation, priority 1980, dated 1984)
Where a name gives a salt, the structure may show the parent alone.

Tested on: Fusarium solani
Assay: Mycelial growth test
Assay type: cell-based
Settings: for Percent Fungus Growth Inhibition / inhibition at 5 ppm / inhibition at 10 ppm / inhibition at 20 ppm: PS, 72 hours; for Percent Fungus Growth Inhibition: hydrochloride; for inhibition at 5 ppm / inhibition at 10 ppm / inhibition at 20 ppm / inhibition at 40 ppm: Fusarium solani, 72 h; for inhibition at 5 ppm / inhibition at 10 ppm / inhibition at 20 ppm: read-out: Percent Fungus Growth Inhibition; for inhibition at 40 ppm: read-out: Percent Fungus Growth Inhibition, PS, 40 ppm, 72 hours

Row | SMILES | Percent Fungus Growth Inhibition (10 ppm) | Percent Fungus Growth Inhibition (20 ppm) | inhibition at 5 ppm | inhibition at 10 ppm (10 ppm) | inhibition at 20 ppm (20 ppm) | inhibition at 40 ppm
1 | Nc1ccc(Oc2nsnc(Cl)c2=O)cc1 [Compound 27, 5-(4-aminophenoxy)-3-chloro-4H--1,2,6-thiadiazine-4-one hydrochloride] | 8% | 13% |  |  |  | 
2 | O=c1c(Cl)nsnc1Oc1ccc([N+](=O)[O-])cc1Cl [Compound 53, 3-chloro-5-(2-chloro-4-nitrophenoxy)-4H--1,2,6-thiadiazin-4-one] |  |  | 42% | 68% | 100% | 100%
3 | CC(=O)Nc1cccc(Oc2nsnc(Cl)c2=O)c1 [Compound 42, 3-[(3-N--acetylamino)-phenoxy]-5-chloro-4H--1,2,6-thiadiazin-4-one] |  |  | 31% | 19% | 13% | 38%
4 | COc1ccc(Oc2nsnc(Cl)c2=O)cc1 [Compound 5, 3-chloro-5-(4-methoxyphenoxy)4H--1,2,6-thiadiazin-4-one] |  |  | 18% | 35% | 6% | 71%
5 | O=c1c(Cl)nsnc1Oc1ccccc1Cl [Compound 14, 3-chloro-5-(2-chlorophenoxy)-4H--1,2,6-thiadiazin-4-one] |  |  | 44% | 100% | 100% | 100%
6 | O=c1c(Cl)nsnc1Oc1ccccc1 [Compound 2, 3-chloro-5-phenoxy-4H--1,2,6-thiadiazin-4-one] |  |  | 53% | 65% | 76% | 100%
7 | CS(=O)(=O)c1ccc(Oc2nsnc(Cl)c2=O)cc1 [Compound 41, 3-chloro-5-[(4-methylsulfonyl)phenoxy]-4H--1,2,6-thiadiazin-4-one] |  |  | 16% | 16% | 42% | 68%
8 | O=C(OCc1ccccc1)Oc1ccc(Oc2nsnc(Cl)c2=O)cc1 [Compound 38, 3-chloro-5-[4-(phenylmethoxycarbonyloxy)phenoxyl]-4H-1,2,6-thiadiazin-4-one] |  |  | 10% | 20% | 30% | 35%
9 | Cc1cccc(C)c1Oc1nsnc(Cl)c1=O [Compound 24, 3-chloro-5-(2,6-dimethylphenoxy)-4H--1,2,6-thiadiazin-4-one] |  |  | 33% | 83% | 100% | 100%
10 | O=c1c(Cl)nsnc1Oc1ccc(Br)cc1 [Compound 15, 3-chloro-5-(4-bromophenoxy)-4H--1,2,6-thiadiazin-4-one] |  |  | 0% | 42% | 42% | 83%
11 | O=c1c(Cl)nsnc1Oc1ccccc1Br [Compound 34, 3-chloro-5-(2-bromophenoxy)-4H-1,2,6,-thiadiazin-4-one] |  |  | 13% | 43% | 50% | 100%
12 | Cc1cc(C)cc(Oc2nsnc(Cl)c2=O)c1 [Compound 25, 3-chloro-5-(3,5-dimethylphenoxy)-4H--1,2,6-thiadiazin-4-one] |  |  | 50% | 100% | 100% | 100%
13 | CCOC(=O)c1ccc(Oc2nsnc(Cl)c2=O)cc1 [Compound 7, 3-chloro-5-(4-ethoxycarbonylphenoxy)-4H--1,2,6-thiadiazin-4-one] |  |  | 42% | 54% | 69% | 88%
14 | Cc1cccc(Oc2nsnc(Cl)c2=O)c1 [Compound 21, 3-chloro-5-(3-methylphenoxy)-4H--1,2,6-thiadiazin-4-one] |  |  | 33% | 62% | 58% | 100%
15 | N#CCc1ccc(Oc2nsnc(Cl)c2=O)cc1 [Compound 46, 3-chloro-5-[(4-cyanomethyl)-phenoxy]4H--1,2,6-thiadiazin-4-one] |  |  | 35% | 70% | 90% | 100%
16 | O=c1c(Cl)nsnc1Oc1cc(Cl)cc(Cl)c1 [Compound 20, 3-chloro-5-(3,5-dichlorophenoxy)-4H--1,2,6-thiadiazin-4-one] |  |  | 59% | 66% | 100% | 69%
17 | O=c1c(Cl)nsnc1Oc1cccc(C(F)(F)F)c1 [Compound 44, 3-chloro-5-[(3-trifluoromethyl)phenoxy]-4H--1,2,6-thiadiazin-4-one] |  |  | 100% | 100% | 100% | 100%
